The subject of the first assay is HCV replicon in Huh-7 cells. As to the kind of experiment: HCV replicon assay (NPT ELISA) for inhibition of HCV replication. The note with it: Hepatitis C virus, Huh-7, 72 h, HCV replicon-containing Huh-7 cells, three days incubation. It is filed as cell-based. How it is done:
Compounds claimed herein are tested for the ability to inhibit viral replication of the Hepatitis C replicon in cultured cells in which the HCV replicon construct has been incorporated. The HCV replicon system was described by Bartenschlager, et. al (Science, 285, pp. 110-113 (1999)). The replicon system is predictive of in vivo anti-HCV activity; compounds that are active in humans uniformly evidence activity in the replicon assay.
In this assay HCV replicon containing cells are treated with different concentrations of the test compound to ascertain the ability of the test compound to suppress replication of the HCV replicon. As a positive control, HCV replicon-containing cells are treated with different concentrations of interferon alpha, a known inhibitor of HCV replication. The replicon assay system includes Neomycin Phosphotransferase (NPT) as a component of the replicon itself in order to detect the transcription of replicon gene products in the host cell. Cells in which the HCV replicon is actively replicating have high levels of NPT; the level of NPT is proportional to HCV replication. […] The NPT level of each sample is measured using a captured ELISA.
A protocol for testing compounds for the ability to inhibit viral replication of the Hepatitis C replicon cultured cells in which the replicon construct has been incorporated, follows.
The HCV replicon contains, 5′-3′, the HCV-IRES, the neomycin phosphotransferase (neo) gene, the IRES of encephalomyocarditis virus, which directs translation of HCV sequences NS3 to NS5B, and the 3′-NTR. The sequence of the HCV replicon has been deposited in GenBank (Accession no. AJ242652).
The replicon is transfected into Huh-7 cells using standard methods such as electroporation.
The equipment and materials include, but are not limited to, Huh-7 HCV replicon-containing cells, maintenance media (DMEM (Dulbecco's modified Eagle media) supplemented with 10% FBS, L-glutamine, non-essential amino acids, penicillin (100 units/ml), streptomycin (100 micrograms/ml), and 500 micrograms/ml of Geneticin (G418), screening media (DMEM supplemented with 10% FBS, L-glutamine, non-essential amino acids, penicillin (100 units/ml) and streptomycin (100 micrograms/ml)), 96 well tissue culture plates (flat bottom), 96 well plates (U bottom for drug dilution), Interferon alpha for positive control, fixation reagent (such as methanol:acetone), primary antibody (rabbit anti-NPTII), secondary antibody: Eu-N11, and enhancement solution.
HCV replicon-containing cells support high levels of viral RNA replicon replication when their density is suitable. Over-confluency causes decreased viral RNA replication. Therefore, cells must be kept growing in log phase in the presence of 500 micrograms/ml of G418. Generally, cells should be passed twice a week at 1: 4-6 dilution. Cell maintenance is conducted as follows:
HCV replicon-containing cells are examined under a microscope to ensure that cells growing well. Cells are rinsed once with PBS and 2 ml trypsin is added. The cell/trypsin mixture is incubated at 37° C. in a CO2 incubator for 3-5 minutes. After incubation 10 ml of complete media is added to stop the trypsinization reaction. Cells are blown gently, put into a 15 ml tube, and spun at 1200 rpm for 4 minutes. The trypsin/medium solution is removed. Medium (5 ml) is added and the cells are mixed carefully. The cells are counted.
The cells are then seeded onto 96-well plates at a density of 6000-7500 cells/100 microliters/well (6-7.5×10^5 cells/10 ml/plate). The plates are then incubated at 37° C. in a 5% CO2 incubator.
Cells are examined under a microscope approximated 24 hours after seeding and prior to adding drugs. If counting and dilution were performed correctly, cells are 60-70% confluent and nearly all cells should attach and spread evenly in the well.
HCV replicon-containing cells are rinsed with once PBS once; 2 mls of trypsin are then added. Cells are incubated at 37° C. in a 5% CO2 incubator for 3-5 minutes. […]
Background: A replicon is a self-replicating genome or part of one, used to study replication in cells.
Regarding `COc1ccc2c(O[C@@H]3C[C@H]4C(=O)N[C@@]5(C(=O)NS(=O)(=O)C6CC6)C[C@@H]5/C=C\CCCC(=O)N(C)[C@@H](C(C)(C)C)C(=O)N4C3)cc(-c3ccccc3)nc2c1` [Compound 11, (2R,6S,13aR,14aS,16aS,Z)-6-tert-butyl-N-(cyclopropylsulfonyl)-2-(7-methoxy-2-phenylquinolin-4-yloxy)-7-methyl-5,8,16-trioxo-1,2,3,5,6,7,8,9,10,11,13a,14,14a,15,16,16a-hexadecahydrocyclopropa[n]pyrrolo[2,1-c] [1,4,7]triazacyclopentadecine-14a-carboxamide], the half-maximal effective concentration (EC50) is no more than 10 µM.

Staying with this assay, now noted: Hepatitis C virus, Huh-7, 72 h, HCV replicon-containing Huh-7 cells, three days incubation; read-out: EC50.
Consider `C=CCCCC(=O)N[C@@H](C(=O)N1C[C@H](Oc2cc(-c3ccccc3)nc3cc(OC)ccc23)C[C@H]1C(=O)N[C@@]1(C(=O)NS(=O)(=O)C2CC2)C[C@@H]1C=C)C(C)(C)C` [Compound 8, (2S,4R)-N-((1S,2R)-1-(cyclopropylsulfonylcarbamoyl)-2-vinylcyclopropyl)-1-((R)-2-hex-5-enamido-3,3-dimethylbutanoyl)-4-(7-methoxy-2-phenylquinolin-4-yloxy)pyrrolidine-2-carboxamide], for which the EC50 was 1 to 10 µM.
Same read-out and setting: then `COc1ccc2c(O[C@@H]3C[C@H]4C(=O)NC5(C(=O)NS(=O)(=O)C6CC6)CC5/C=C\CCCC(=O)N[C@@H](CC(=O)OC(C)(C)C)C(=O)N4C3)cc(-c3ccccc3)nc2c1` (stereo partly drawn) [Compound 14, tert-butyl 2-((2R,6S,16aS,Z)-14a-(cyclopropylsulfonylcarbamoyl)-2-(7-methoxy-2-phenylquinolin-4-yloxy)-5,8,16-trioxo-1,2,3,5,6,7,8,9,10,11,13a,14,14a,15,16,16a-hexadecahydrocyclopropa[n]pyrrolo [2,1-c][1,4,7]triazacyclopentadecin-6-yl)acetate], with less than 1 µM; and `COc1ccc2c(O[C@@H]3C[C@H]4C(=O)N[C@@]5(C(=O)NS(=O)(=O)C6CC6)C[C@@H]5/C=C\CCCC(=O)N(C)[C@@H](C(C)(C)C)C(=O)N4C3)cc(-c3ccccc3)nc2c1` [Compound 11, (2R,6S,13aR,14aS,16aS,Z)-6-tert-butyl-N-(cyclopropylsulfonyl)-2-(7-methoxy-2-phenylquinolin-4-yloxy)-7-methyl-5,8,16-trioxo-1,2,3,5,6,7,8,9,10,11,13a,14,14a,15,16,16a-hexadecahydrocyclopropa[n]pyrrolo[2,1-c] [1,4,7]triazacyclopentadecine-14a-carboxamide], with greater than 10 µM; and `COc1ccc2c(O[C@@H]3C[C@H]4C(=O)NC5(C(=O)NS(=O)(=O)C6CC6)CC5/C=C\CCCC(=O)N[C@@H](C(C)(C)C)C(=O)N4C3)cc(-c3ccccc3)nc2c1` (stereo partly drawn) [Compound 4, (2R,6S,16aS,Z)-6-tert-butyl-N-(cyclopropylsulfonyl)-2-(7-methoxy-2-phenylquinolin-4-yloxy)-5,8,16-trioxo-1,2,3,5,6,7,8,9,10,11,13a,14,14a,15,16,16a-hexadecahydrocyclopropa[n]pyrrolo[2,1-c] [1,4,7]triazacyclopentadecine-14a-carboxamide], with 1 to 10 µM.
Consider `COc1ccc2c(O[C@@H]3C[C@H]4C(=O)N[C@]5(C(=O)NS(=O)(=O)C6CC6)C[C@H]5/C=C\CCCC(=O)N[C@@H](C(C)(C)C)C(=O)N4C3)cc(-c3nc(C(C)C)cs3)nc2c1C` [Compound 19, (2R,6S,14aR,16aS,Z)-6-tert-butyl-N-(cyclopropylsulfonyl)-2-(2-(4-isopropyithiazol-2-yl)-7-methoxy-8-methylquinolin-4-yloxy)-5,8,16-trioxo-1,2,3,5,6,7,8,9,10,11,13a,14,14a,15,16,16a-hexadecahydrocyclopropa[n]pyrrolo[2,1-c] [1,4,7]triazacyclopentadecine-14a-carboxamide], for which the half-maximal effective concentration (EC50) is 1 to 10 µM.
Turning to `COc1ccc2c(O[C@@H]3C[C@H]4C(=O)N[C@]5(C(=O)NS(=O)(=O)C6CC6)C[C@H]5/C=C\CCCC(=O)N(C)CC(=O)N4C3)cc(-c3nc(C(C)C)cs3)nc2c1C` [Compound 18, (2R,14aR,16aS,Z)-N-(cyclopropylsulfonyl)-2-(2-(4-isopropyithiazol-2-yl)-7-methoxy-8-methylquinolin-4-yloxy)-7-methyl-5,8,16-trioxo-1,2,3,5,6,7,8,9,10,11,13a,14,14a,15,16,16a-hexadecahydrocyclopropa[n]pyrrolo[2,1-c] [1,4,7]triazacyclopentadecine-14a-carboxamide], the EC50 is less than 1 µM.
`COc1ccc2c(O[C@@H]3C[C@H]4C(=O)N[C@]5(C(=O)NS(=O)(=O)C6CC6)C[C@H]5/C=C\CCCC(=O)N[C@H](C(C)(C)C)C(=O)N4C3)cc(-c3ccccc3)nc2c1` [Compound 5, (2R,6R,13aS,14aR,16aS,Z)-6-tert-butyl-N-(cyclopropylsulfonyl)-2-(7-methoxy-2-phenylquinolin-4-yloxy)-5,8,16-trioxo-1,2,3,5,6,7,8,9,10,11,13a,14,14a,15,16,16a-hexadecahydrocyclopropa[n]pyrrolo[2,1-c] [1,4,7]triazacyclopentadecine-14a-carboxamide]: the EC50 is greater than 10 µM.
For the molecule `C=CCCCC(=O)N[C@@H](C(=O)N1C[C@H](Oc2cc(-c3ccccc3)nc3cc(OC)ccc23)C[C@H]1C(=O)N[C@]1(C(=O)NS(=O)(=O)C2CC2)C[C@H]1C=C)C(C)(C)C` [Compound 7, (2S,4R)-N-((1R,2S)-1-(cyclopropylsulfonylcarbamoyl)-2-vinylcyclopropyl)-1-((R)-2-hex-5-enamido-3,3-dimethylbutanoyl)-4-(7-methoxy-2-phenylquinolin-4-yloxy)pyrrolidine-2-carboxamide], the EC50 is 1 to 10 µM.
Turning to `CCOC(=O)C12CC1/C=C\CCCC(=O)N(CCCCCC(=O)O)[C@@H](C(C)(C)C)C(=O)N1C[C@H](Oc3cc(-c4ccccc4)nc4cc(OC)ccc34)C[C@H]1C(=O)N2` (stereo partly drawn) [Compound 3, 6-((2R,6S,16aS,Z)-6-tert-butyl-14a-(ethoxycarbonyl)-2-(7-methoxy-2-phenylquinolin-4-yloxy)-5,8,16-trioxo-2,3,5,6,8,9,10,11,13a,14,14a,15,16,16a-tetradecahydrocyclopropa[n]pyrrolo[2,1-c] [1,4,7]triazacyclopentadecin-7(1H)-yl)hexanoic acid], the EC50 was greater than 10 µM.
For the molecule `COc1ccc2c(O[C@@H]3C[C@H]4C(=O)N[C@]5(C(=O)NS(=O)(=O)C6CC6)C[C@H]5/C=C\CCCC(=O)N[C@@H](CC(=O)N5CCCC(F)(F)C5)C(=O)N4C3)cc(-c3nc(C(C)C)cs3)nc2c1C` [Compound 17, (2R,6S,14aR,16aS,Z)-N-(cyclopropylsulfonyl)-6-(2-(3,3-difluoropiperidin-1-yl)-2-oxoethyl)-2-(2-(4-isopropylthiazol-2-yl)-7-methoxy-8-methylquinolin-4-yloxy)-5,8,16-trioxo-1,2,3,5,6,7,8,9,10,11,13a,14,14a, 15,16,16a-hexadecahydrocyclopropa[n] pyrrolo[2,1-c][1,4,7]triazacyclopenta-decine-14a-carboxamide], the EC50 is less than 1 µM.
With `COc1ccc2c(O[C@@H]3C[C@H]4C(=O)N[C@]5(C(=O)NS(=O)(=O)C6CC6)C[C@H]5/C=C\CCCC(=O)N(C)[C@@H](C(C)(C)C)C(=O)N4C3)cc(-c3ccccc3)nc2c1` [Compound 10, (2R,6S,13aS,14aR,16aS,Z)-6-tert-butyl-N-(cyclopropylsulfonyl)-2-(7-methoxy-2-phenylquinolin-4-yloxy)-7-methyl-5,8,16-trioxo-1,2,3,5,6,7,8,9,10,11,13a,14,14a,15,16,16a-hexadecahydrocyclopropa[n]pyrrolo[2,1-c] [1,4,7]triazacyclopentadecine-14a-carboxamide], the EC50 is greater than 10 µM.
Turning to `COc1ccc2c(O[C@@H]3C[C@H]4C(=O)N[C@@]5(C(=O)NS(=O)(=O)C6CC6)C[C@@H]5/C=C\CCCC(=O)N[C@H](C(C)(C)C)C(=O)N4C3)cc(-c3ccccc3)nc2c1` [Compound 9, (2R,6R,13aR,14aS,16aS,Z)-6-tert-butyl-N-(cyclopropylsulfonyl)-2-(7-methoxy-2-phenylquinolin-4-yloxy)-5,8,16-trioxo-1,2,3,5,6,7,8,9,10,11,13a,14,14a,15,16,16a-hexadecahydrocyclopropa[n]pyrrolo[2,1-c] [1,4,7]triazacyclopentadecine-14a-carboxamide], the EC50 was less than 1 µM.

A word on the EC50: it is the midpoint of the concentration-response curve.

The values are drawn from patent publication US8445430B2, “Cyclic carboxamide compounds and analogues thereof as of hepatitis C virus” (Achillion Pharmaceuticals, Inc., priority 2008, dated 2013).
